Measurements taken from PMC6749586, “Design, Synthesis, and Anticancer Effect Studies of Iridium(III) Polypyridyl Complexes against SGC-7901 Cells” (Molecules, 2019).

What was measured:
SGC-7901 cells [1] = assay: Transwell cell invasion assay; format: cell-based, human; details: 4.0 µM 1, 15.0 µM 2, 15.0 µM 3, 24 h, Matrigel Transwell
Method: To analyze the efficacy of the iridium(III) complexes in preventing migration and offsetting the invasion potential of SGC-7901 cells, 24-well Transwell chambers coated with matrigel were used. The cells were trypsinized and re-suspended in serum-free RPMI-1640 at a density of 1.8 × 10^5 cells/mL. Then, 100 μL of the cell suspension and different concentrations of the complexes were placed in the top chambers of the Transwell plates, and 500 μL of RPMI-1640 containing 20% FBS was added to the lower chambers. After co-incubation for 24 h, non-invading cells in the top chambers of the Transwell plates were scraped away by cotton swabs, and invaded cells were fixed with paraformaldehyde for 15 min and stained with crystal violet solution (0.1%) for 20 min. The cells that invaded the underside of the Transwell plates were photographed with a microscope.

SGC-7901 cells [2] = assay: ATP quantification assay (luciferin-luciferase); format: cell-based, human; details: 4.0 µM 1, 15.0 µM 2, 15.0 µM 3, 24 h; control 951.46 nM
Method: Approximately 2.4 × 10^6 cells were taken, evenly planted in a 6-well plate, and incubated overnight in an incubator at 37 °C. On the next day, the cells were exposed to different concentrations of compounds for 24 h in triplicate. Following exposure, 200 μL of cell lysis buffer was added to each well of the cell plate and lysed on ice. To measure ATP, 20 μL of the lysed cell suspension was added to 100 μL of a luciferin–luciferase reagent. Light emission was measured by a luminometer. ATP levels were determined using a standard curve.

A549 cells = assay: MTT cytotoxicity assay, A549; format: cell-based, human; details: 48 h, read-out: IC50 toward A549
Excerpt: (§1) The lung carcinoma cell line A549, the cervical cancer cell line HeLa, the esophageal cancer cell line Eca-109, and the human hepatocellular carcinoma cell line BEL-7402 were purchased from the cell bank of the Cell Institute of Sinica Academia Shanghai (Shanghai, China). The gastric adenocarcinoma cell line SGC-7901, the hepatocellular carcinoma cell line HepG2, and the mouse embryonic fibroblast cell line NIH 3T3 were obtained from the Experimental Animal Center of Sun Yat-Sen University (Guangzhou, China). The BEL-7402 and SGC-7901 cell lines were cultured in Roswell Park Memorial Institute Medium (RPMI-1640); and A549, Eca-109, HepG2, and NIH 3T3 cells were grown in Dulbecco’s Modified Eagle’s Medium (DMEM), including 10% fetal bovine serum (FBS), 100 units mL^−1 penicillin/streptomycin mixture, and 2.0 g/L of NaHCO3. Cell passage experiments were performed with trypsin every 2 days to maintain exponential growth. All cells were cultured until they reached logarithmic growth phase, unless specifically noted.
(§2) Cell cytotoxicity following treatment with the iridium(III) complexes was detected by MTT assay. The cells were seeded into 96-well micro-assay culture plates (1 × 10^4 cells per well) and grown overnight in a 5% CO2 incubator at 37 °C. Then, the cell lines were treated with gradient concentrations of the complexes 1–3. After treatment for 48 h, MTT solution (5 mg mL^−1, […]) dissolved in phosphate buffer was added to each well and the cells were further cultured for 4 h. Upon completion of incubation, the solvent was removed and 100 µL/well of buffer containing dimethylformamide (50%) and sodium dodecyl sulfate (20%) was added to dissolve the produced formazan. The absorbance of each well was measured with a microplate reader at a wavelength of 490 nm. The IC50 values were determined from the plots of viability versus concentration used to treat the cells. Three independent experiments were performed to obtain the mean values.

SGC-7901 cells [3] = assay: Annexin V-FITC/PI apoptosis analysis by flow cytometry; format: cell-based, human; details: 4.0 µM 1, 15.0 µM 2 or 3; for Early apoptotic cells (EA): 24 h (b62 says 48 h), control 2.84%
Method: A total of 1 mL of SGC-7901 cells at 2 × 10^6 cells/mL was seeded in a six-well plate and incubated overnight in a CO2 incubator at 37 °C. Then, the cells were treated with 1, 2, or 3 for 24 h. After treatment, the cells were harvested, washed three times with ice-cold PBS, and then re-suspended in 195 μL of 1 × Annexin V-FITC binding buffer. Next, 10 μL of PI and 5 μL of Annexin-FITC were sequentially added to each sample, stained in the dark for 20 min, and analyzed by a FACS Calibur flow cytometer ([…] Dickinson & Co., Franklin Lakes, NJ, USA). Annexin-V positive cells were considered apoptotic.

SGC-7901 cells [4] = assay: Western blot analysis of apoptosis-related proteins; format: cell-based, human; details: 4.0 µM 1, 15.0 µM 2, 15.0 µM 3, 24 h
Method: The SGC-7901 cancer cells were seeded on 6-well plates at a density of 5 × 10^5 cells per well. Following incubation for 24 h, the cells were treated with 1–3 for 24 h. Next, total proteins were extracted from the cells after incubation in lysis radioimmunoprecipitation assay (RIPA) buffer for 30 min on ice. After centrifugation (13,000× g, 4 °C, 20 min) of the cell suspension, the supernatants were obtained. Protein concentrations were determined using a BCA (bicinchoninic acid) protein assay kit. Equal amounts of denatured proteins were fractionated by electrophoresis on SDS-polyacrylamide gel at 50 V for 3 h. A pre-stained color protein marker was used as the internal reference. The gels were then segmented, transferred to polyvinylidene fluoride (PVDF) membranes (Millipore, Burlington, MA, USA) and then blocked with 5% non-fat milk in TBST buffer (150 mM NaCl, 20 mM Tris-HCl, 0.05% Tween 20, pH = 8.0) for 2 h. […] Further hybridization with the secondary antibodies (diluted 1:5000) conjugated with horseradish peroxidase was performed after washing the membranes three times in TBST buffer with shaking. Each protein was visualized using an enhanced chemiluminescence (ECL) detection kit, in accordance with the manufacturer’s instructions. Finally, the blot images were photographed by a computerized imaging system.

BEL-7402 cells = assay: MTT cytotoxicity assay, BEL-7402; format: cell-based, human; details: 48 h, read-out: IC50 toward BEL-7402
Excerpt: as §1, §2

[5] = Oil-water partition coefficient, flask-shake method; format: physicochemical; details: octanol/water, pH 7.4, flask-shake, 25 °C
Method: The pH of the cells cultured in vitro was approximately 7.4. With this in mind, we evaluated the lipophilicity of the iridium complexes by detecting the partition coefficient at pH = 7.4, using the flask-shake method. Each drug was dissolved in pre-saturated octanol at final concentrations of 0.02 and 0.03 mM. Aliquots of 5 mL of drug solution and distilled water (previously saturated with octanol) were transferred to a 25 mL flask and shaked at 25 °C for 24 h. After the shaking was completed, the solution was allowed to stand for 48 h to fully equilibrate the aqueous phase and the organic phase. The concentration of the complexes in the aqueous phase was then measured by UV-vis spectroscopy at the maximum ultraviolet absorption (262 nm for 1, 249 nm for 2, and 251 nm for 3). The evaluation of each sample was repeated three times.

Structure (SMILES)	Inhibitory percentage of cell invasion (SGC-7901 cells [1]) [%]	Intracellular ATP amount (SGC-7901 cells [2]) [nM]	IC50 (A549 cells) [µM]	Percentage including early and late apoptotic cells (SGC-7901 cells [3]) [%]	Early apoptotic cells (EA) (SGC-7901 cells [3]) [%]	Expression level of Bax (SGC-7901 cells [4])	Expression level of Bcl-2 (SGC-7901 cells [4])	Expression level of Bcl-xL (SGC-7901 cells [4])	Expression level of phosphorylated p53 (P-p53) (SGC-7901 cells [4])	IC50 (BEL-7402 cells) [µM]	logPo/w [5]
F[P-](F)(F)(F)(F)F.O=[N+]([O-])c1cc2ccc[n+]3c2c2c1ccc[n+]2[Ir-5]312([c]3ccccc3-c3cccc[n+]31)[c]1ccccc1-c1cccc[n+]12 [Complex 1, [Ir(Hppy)2(NP)]PF6]	51.09	913.91	14.3 ± 2.4	37.07	29.9	increased	dramatically decreased	dramatically decreased	dramatically decreased	23 ± 0.8	1.01
F[P-](F)(F)(F)(F)F.Nc1c([N+](=O)[O-])c2cccnc2c2ncccc12.[Ir+3].[c-]1ccccc1-c1ccccn1.[c-]1ccccc1-c1ccccn1 [Complex 2, [Ir(Hppy)2(NAP)]PF6]	46.01	880.48	80.6 ± 1.4	35.6	14.8	increased	dramatically decreased	dramatically decreased	dramatically decreased	68.7 ± 1.5	1.33
F[P-](F)(F)(F)(F)F.Nc1c(N)c2cccnc2c2ncccc12.[Ir+3].[c-]1ccccc1-c1ccccn1.[c-]1ccccc1-c1ccccn1 [Complex 3, [Ir(Hppy)2(DAP)]PF6]	48.90	945.02	> 100	41.8	13.7	increased	dramatically decreased	dramatically decreased	dramatically decreased	68.8 ± 4.6	0.78
